Measurements reported in patent publication US9562031B1, “Phenethyldihydrobenzodioxolones and methods of use” (Sequoia Sciences, Inc., priority 2015, dated 2017).

What was measured:
NCI-H441 cells = assay: antiproliferation assay, NCI-H441; assay type: cell-based; conditions: Homo sapiens
Experimental: (§1) For the antiproliferation assay, NCI-H460 (large cell lung carcinoma) or M14 (amelanotic melanoma) cells were grown in RPMI-1640 with 10% FBS supplemented with L-glutamine and HEPES. Cells were seeded into 96-well plates at 5×10^2 to 5×10^4 cells/well and allowed to adhere overnight; the medium was then removed. A stock solution of test compound in DMSO was diluted in medium to generate a series of working solutions. Aliquots (100 μl) of the working solutions were then added to the appropriate test wells to expose cells to the final concentrations of compound in a total volume of 100 μl. Seven different concentrations were tested, with 2-5 wells per concentration. Camptothecin was used as a positive control; wells containing vehicle without compound were used as negative controls. Plates were kept for 72 h in a 37° C., 5% CO2 incubator. After incubation, viable cells were detected with the CELLTITER 96 AQueous Non-Radioactive Cell Proliferation Assay (Promega), and IC50 values were determined using GraphPad Prism 5 software.
(§2) Antiproliferation of several of the active compounds was tested against additional cell lines.

NCI-H187 cells = assay: antiproliferation assay, NCI-H187; assay type: cell-based; conditions: Homo sapiens
Experimental: as §1, §2

NCI/ADR-RES cells = assay: antiproliferation assay, NCI/ADR-RES; assay type: cell-based; conditions: Homo sapiens
Experimental: as §1, §2
Compound 4 was tested for antiproliferation activity against several paclitaxel-resistant human cancer cell lines.

HCT-116 cells = assay: antiproliferation assay, HCT-116; assay type: cell-based; conditions: Homo sapiens
Experimental: as §1, §2

[1] = tested on: NCI-H460 (large cell lung carcinoma) cells; assay: antiproliferation assay (72 h, CELLTITER 96), NCI-H460; assay type: cell-based, human; conditions: Homo sapiens, NCI-H460, Table 4; read-out: NCI-H460 IC50
Method in brief: (§3)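 Human M14 melanoma and NCI-H460 lung carcinoma cells in RPMI-1640/10% FBS, seeded at 5×10^2–5×10^4 cells/well and adhered overnight, then exposed to seven compound concentrations for 72 h at 37 °C. Viable cells read by CellTiter 96 AQueous (MTS); IC50 = concentration giving 50% of maximal growth inhibition.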

LOX-IMVI cells = assay: antiproliferation assay, LOX-IMVI; assay type: cell-based; conditions: Homo sapiens
Experimental: as §1, §2

[2] = tested on: M14 (amelanotic melanoma) cells; assay: antiproliferation assay (72 h, CELLTITER 96), M14; assay type: cell-based, human; conditions: Homo sapiens; Table 4
Method in brief: as §3

NCI-H526 cells = assay: antiproliferation assay, NCI-H526; assay type: cell-based; conditions: Homo sapiens
Experimental: as §1, §2

**Q.** Which results are given for `C=CC[C@H]1C[C@]2([C@@H](C)Cc3ccc(OC)c(O)c3)OCOC2=CC1=O` [Compound 32, (6S,7aR)-6-allyl-7a-((S)-1-(3-hydroxy-4-methoxyphenyl)propan-2-yl)-7,7a-dihydrobenzo[d][1,3]dioxol-5(6H)-one]?
**A.** IC50 (NCI-H441 cells): 140 nM; IC50 (NCI-H187 cells): 46 nM; IC50 (NCI/ADR-RES cells): 38 nM; IC50 (HCT-116 cells): 13 nM; IC50 [1]: 83 nM; IC50 (LOX-IMVI cells): 12 nM; IC50 [2]: 7.9 nM; IC50 (NCI-H526 cells): 79 nM
